Measured values taken from US20160000750A1, “COMBINATION OF EGCG OR METHYLATED EGCG AND A PDE INHIBITOR” (KYUSHU UNIVERSITY, NATIONAL UNIVERSITY CORPORATION, priority 2010, published 2016).

Experiments:
[1] = system: human acute myeloid leukemia cell line, HL60; assay: Trypan blue cell viability and viable cell count, HL60; assay type: cell-based; conditions: vardenafil 5 μM, EGCG 5 μM added after 3 hours, 96 hours
Experimental: A human multiple myeloma cell line, U266, was subcultured in an RPMI 1640 medium (NISSUI PHARMACEUTICAL Co. LTD., Tokyo) supplemented with 10% fetal calf serum (FCS) (BIOLOGICAL INDUSTRIES) at 37° C. under vapor-saturated 5% CO2 conditions. The cells were cultured in the logarithmic growth phase. A human acute myeloid leukemia cell line, HL60, was subcultured in an RPMI 1640 medium supplemented with 10% fetal calf serum (FCS) at 37° C. under vapor-saturated 5% CO2 conditions. The cells were cultured in the logarithmic growth phase. […]
The plate was returned to the incubator immediately after the addition of EGCG, followed by culturing for 96 hours. […] After 10 minutes, the number of the cells was counted with a hemocytometer (Becton, Dickinson and Company). Unstained cells were deemed as viable cells, and the cell viability was determined as a ratio of the number of unstained cells in trypan blue staining to the total number of cells. […]

[2] = system: mouse plasmacytoma cell line, MPC11, transplanted to Balb/c mice; assay: Tumor formation of MPC11 transplanted to Balb/c mice; assay type: in vivo; conditions: MPC11 s.c., EGCG 15 mg/kg i.p., vardenafil 5 mg/kg i.p., once every two days from day 4
Experimental: Furthermore, 5-week old female balb/c mice were preliminarily bred for one week and were then inoculated with a mouse multiple myeloma cell line, MPC11, by subcutaneous injection, in the right back, of […] of a suspension of 5×10^7 cells/mL of the cells in an RPMI medium. After 4 days from the inoculation, EGCG (15 mg/kg i.p.) and vardenafil (5 mg/kg i.p.) were administered once every two days, and the tumor volume was measured with varnier clipers. In the graph, EGCG and VDN indicate single administration of EGCG and vardenafil, respectively, and EGCG/Vardenafil indicates combination administration of EGCG and vardenafil.

[3] = system: TLR 4; assay: TLR4 expression in RAW 264.7 by Western blotting; assay type: cell-based, mouse; conditions: vardenafil 5 μM, EGCG 10 μM added after 3 hours, 24 hours, untreated = 100
Experimental: A mouse macrophage cell line, RAW 264.7, was seeded in a 5-mL dish at 1×10^5 cells/mL and was pre-cultured in a DMEM medium supplemented with 1% FCS for 24 hours. Subsequently, vardenafil was added thereto at a concentration of 5 μM. After 3 hours, EGCG was added thereto at a concentration of 0 μM or 10 μM. After 24 hours, the cells were collected, and the expressions of Toll-like receptor (TLR) 2 and TLR 4 were measured by Western blotting.

## (−)-epigallocatechin-3-O-gallate [EGCG]
[1]
  cell viability (cell-killing activity): any cytotoxicity was not observed
[2]
  tumor formation (tumor volume): any inhibitory action on tumor formation of the mouse plasmacytoma cell line was not observed
[3]
  TLR4 expression level(%): 57%
